{
  "source": "patent US10517964B2",
  "about": "“Optical imaging probes, optical imaging systems, methods of optical imaging, and methods of using optical imaging probes” (priority 2011, dated 2019)",
  "key": {"[1]": {"test_system": "C6 cell line without transfection", "assay": "in vitro [18F]FHBG cell uptake, negative control cells", "format": "cell-based, rat", "details": "non transfected C6 cells, 37° C., 15-120 min", "description": "The in vitro [^18F]FHBG cell uptake study was performed as previously described with minor modifications (12). Briefly, C6-tk cells were seeded into 12-well plates at a density of 5×10^5 cells per well 12 h prior to the experiment. The C6 cell line without transfection was used as a negative control. The cells were then incubated with [^18F]FHBG ([…], 3 μCi/well) at 37° C. for 15, 30, 60 and 120 min. Tumor cells were washed 3 times with chilled phosphate buffered saline (PBS) and harvested with 0.25% trypsin/0.02% ethylenediaminetetraacetic acid (EDTA) (Invitrogen). The cell suspensions were transferred to a 96-well flat bottom black plate (Nunc) and imaged by an IVIS 200 system (Caliper). Luminescent images were taken without a filter [see FIG. 2.1(a)]. The exposure time was 5 min. Then the radioactivity of the cell suspension was measured in a gamma counter (Packard, Meriden, Conn.). The in vitro cell uptake results were expressed as the percentage of the applied activity with decay correction [see FIG. 2.1(b)]. Experiments were performed twice with triplicate samples for each time point. […] More importantly, an excellent correlation has been obtained between OI and gamma counting results [see FIG. 2.1(c), r^2>0.95]. These findings lay the foundation for further in vivo studies to validate the feasibility of using OI for monitoring the nuclear reporter gene system."}, "[2]": {"test_system": "C6-tk tumors (HSV1-tk reporter gene)", "assay": "in vivo OI and PET imaging of mice bearing C6-tk and C6 tumors", "details": "for tumor to normal tissue (T/N) ratio: n=6", "description": "All animal studies were carried out in compliance with federal and local institutional rules for the conduct of animal experimentation. Mice bearing two tumors (C6-tk and C6) were then used for in vivo studies. The C6-tk (left) and C6 (right) cells were injected contra-laterally in the dorsal shoulder region of each mouse (2×10^6 cells/mouse; athymic nude mice were purchased from Charles River Laboratories, n=6). Approximately 10 days later, when tumor size reached about 1-1.5 cm in diameter, small animal PET and OI were performed using the mice and the PET probe [^18F]FHBG. Images at 1 h and 2 h were obtained by both OI and PET. Results are shown by average radiance (photon/second/cm^2/str) for OI and percentage of injected dose per gram (% ID/g) for PET based on the method previously described (13). […] The strong signals in the lower part of the mouse body [FIG. 2.2 (a)] are due to the presence of the radioactivity in the bladder. […] At 2 h post-injection, with the elimination of [^18F]FHBG, only C6-tk tumors can be clearly visualized in both imaging modalities (see FIG. 2.2)."}, "[3]": {"assay": "biodistribution study by OI of organs and gamma counting", "format": "in vivo, mice", "description": "To further compare the imaging results obtained from OI and PET, biodistribution studies were conducted. Mice were sacrificed and different organs were collected at 1 h post-injection of [^18F]FHBG. OI images were obtained for these radioactive organs and quantification analysis of optical images was performed using Living Image software version 3.1 [see FIG. 2.3(a)]. Meanwhile, the radioactivity of the organs was also measured using a gamma counter after weighing, and the radioactivity uptake in the tumor and normal tissues was calculated and expressed as a percentage of the injected radioactive dose per gram of tissue (% ID/g) [see FIG. 2.3(b)].\nThe ratio of kidney to tumor uptake of [^18F]FHBG at 1 h was also calculated to be 2.3 vs. 1.4, for gamma counting vs. OI quantification, respectively. This discrepancy could mainly originate from the diverse optical properties of different tissues, which ultimately affects light imaging and quantification. Compared with the C6-tk tumor, the kidney contains more hemoglobin that absorbs more optical photons. Moreover, unlike high energy gamma rays, the low energy photons have very weak tissue penetrability. Light sources deeper in the tissue contribute less for the total optical signals than those closer to the surface. Therefore the kidney/tumor ratio measured by OI is lower than that obtained by gamma counting. Overall, PET has a better quantitative capability than OI. However, radioactive OI can still serve as a qualitative or semiquantitative research tool for radioactive reporter probe studies. The radioactive OI signals also have a uniquely wide wavelength of emission spectrum (9). The emissions in the near infra-red range are especially favorable for OI in living subjects. In comparison with current reporter gene imaging using BLI probes, radioactive reporter probes may offer a better option for 3D OI reconstruction."}, "[4]": {"test_system": "C6-tk cells (C6 rat glioma stably transfected with HSV-sr39tk)", "assay": "in vitro [18F]FHBG cell uptake, measured by OI and gamma counting", "format": "cell-based", "details": "37° C., 15-120 min", "description": "This is mainly attributed to the ability of radioactive materials to produce low energy visible photons (1.2-3.1 eV, 400-1000 nm) associated with Cerenkov or Bremsstrahlung radiation (8-11). In this research study, we further evaluated the feasibility of using OI to monitor the nuclear reporter gene/reporter probe systems. HSV1-tk and [^18F]FHBG was thus chosen as a model system in this study. The C6 rat glioma cell line stably transfected with HSV-sr39tk plasmids (C6-tk) (12) was used, and the in vitro [^18F]FHBG uptakes in C6-tk cells were measured by both an IVIS optical imaging system (Caliper) and a gamma counter (Perkin Elmer). Finally, we performed in vivo imaging studies of the reporter gene/reporter probe using both OI and PET followed by a biodistribution study.\nThe in vitro [^18F]FHBG cell uptake study was performed as previously described with minor modifications (12). Briefly, C6-tk cells were seeded into 12-well plates at a density of 5×10^5 cells per well 12 h prior to the experiment. The C6 cell line without transfection was used as a negative control. […] Then the radioactivity of the cell suspension was measured in a gamma counter (Packard, Meriden, Conn.). The in vitro cell uptake results were expressed as the percentage of the applied activity with decay correction [see FIG. 2.1(b)]. […]"}, "[5]": {"assay": "radioactive OI of 90YCl3 in mice", "format": "in vivo", "details": "various time points p.i.", "description": "Mice injected with ^90YCl3 (1.8-2.0 MBq each) were also imaged by an IVIS Spectrum system at different time points p.i. (FIG. 1.6e). […] The results obtained by the radioactive OI also agreed well with the previously reports which measured the in vivo behavior of ^90YCl3 by biodistribution study^21.\n(§1) Radioactive optical imaging: In vivo radioactive OI was also performed with an IVIS Spectrum system. Wavelength-resolved spectral imaging was carried out suing a 18 narrow bands emission filters set (490-850 nm). Animals were placed in a light-tight chamber under isofluorane anesthesia. Each acquisition, with or without filters, took 1-5 min for all studies. Images were acquired and analyzed using Living Image 3.0 software (Caliper life sciences, Hopkinton, Mass.). Quantification of Radioactive OI images was corrected in accordance with radionuclides' respective physical decay properties. Optical signal was normalized to photons per second per centimeter square per steradian (p/s/cm^2/sr). Identical setting was used for in vitro Radioactive OI. For in vivo imaging study, normal mice or mice bearing either C6-fluc or PC3 (n=3 for each imaging probe) were injected via tail vein with Na^18F (5.3-5.7 MBq, 140-150 μCi), [^18F]FDG (10.4-11.3 MBq, 280-305 μCi), Na^131I (2.2-2.3 MBq, 59-61 μCi), ^90YCl3 (1.8-2.0 MBq, 48-54 μCi) or ^90Y-RGD-BBN (2.6-3.3 MBq, 70-90 μCi). […]"}, "[6]": {"assay": "radioactive OI and microPET of bone-seeking probe", "format": "in vivo, mice", "details": "0.5-2 h", "description": "Bone-seeking PET probe, Na^18F, was also used for radioactive OI and microPET imaging studies to further confirm the use of optical signals from radioactive probes for molecular imaging.\nRadioactive optical imaging: In vivo radioactive OI was also performed with an IVIS Spectrum system. Wavelength-resolved spectral imaging was carried out suing a 18 narrow bands emission filters set (490-850 nm). Animals were placed in a light-tight chamber under isofluorane anesthesia. Each acquisition, with or without filters, took 1-5 min for all studies. Images were acquired and analyzed using Living Image 3.0 software (Caliper life sciences, Hopkinton, Mass.). Quantification of Radioactive OI images was corrected in accordance with radionuclides' respective physical decay properties. Optical signal was normalized to photons per second per centimeter square per steradian (p/s/cm^2/sr). Identical setting was used for in vitro Radioactive OI. For in vivo imaging study, normal mice or mice bearing either C6-fluc or PC3 (n=3 for each imaging probe) were injected via tail vein with Na^18F (5.3-5.7 MBq, 140-150 μCi), [^18F]FDG (10.4-11.3 MBq, 280-305 μCi), Na^131I (2.2-2.3 MBq, 59-61 μCi), ^90YCl3 (1.8-2.0 MBq, 48-54 μCi) or ^90Y-RGD-BBN (2.6-3.3 MBq, 70-90 μCi). For [^18F]FDG imaging study, the mice were fasted overnight prior to the experiment."}, "[7]": {"assay": "thyroid radioactive OI and SPECT/CT", "format": "in vivo, mice", "details": "quantitative analysis of OI, 0.5-24 h", "description": "Iodine ion can accumulate in the thyroid, and Na^123/131I has been widely used for imaging thyroid function, treating thyroid cancer and sodium iodide symporter^15-17. Therefore, we then tested the SPECT probe, Na^131I, for thyroid radioactive OI. […] High imaging signal was found in the thyroid and bladder at earlier time points postinjection (p.i.). […] At the end of OI study, the mice were sacrificed and the neck and chest areas were opened to expose the internal organs. The thyroid can be easily differentiated (FIG. 1.5d).\nas §1, with “OI.” for “OI. For in vivo imaging study, normal mice or mice bearing either C6-fluc or PC3 (n=3 for each imaging probe) were injected via tail vein with Na^18F (5.3-5.7 MBq, 140-150 μCi), [^18F]FDG (10.4-11.3 MBq, 280-305 μCi), Na^131I (2.2-2.3 MBq, 59-61 μCi), ^90YCl3 (1.8-2.0 MBq, 48-54 μCi) or ^90Y-RGD-BBN (2.6-3.3 MBq, 70-90 μCi).”"}, "[8]": {"details": "OI, 1 h after tail vein injection"}},
  "data": [
    {"smiles": "Nc1nc2c(ncn2CCC(CO)C[18F])c(=O)[nH]1", "note": "(stereo not drawn) [[^18F]FHBG, 9-(4-^18F-fluoro-3-[hydroxymethyl]butyl)guanine]", "values": [
      {"measurement": "cell uptake of [18F]FHBG", "setting": "[1]", "result": "very low cell uptake"},
      {"measurement": "tracer uptake in C6-tk tumors", "setting": "[2]; [8]", "result": "C6-tk tumors can be clearly delineated"},
      {"measurement": "tracer uptake in control C6 tumors", "setting": "[2]; [8]", "result": "minimum tracer uptakes"},
      {"measurement": "tumor to normal tissue (T/N) ratio", "setting": "[2]; OI, 1 h post-injection", "result": "2.6±0.5"},
      {"measurement": "tumor to normal tissue (T/N) ratio", "setting": "[2]; OI, 2 h post-injection", "result": "5.1±1.1"},
      {"measurement": "tumor to normal tissue (T/N) ratio", "setting": "[2]; PET, 1 h post-injection", "result": "43.2±8.4"},
      {"measurement": "tumor to normal tissue (T/N) ratio", "setting": "[2]; PET, 2 h post-injection", "result": "143.0±14.8"},
      {"measurement": "ratio of kidney to tumor uptake", "setting": "[3]; 1 h, OI quantification", "result": 1.4},
      {"measurement": "ratio of kidney to tumor uptake", "setting": "[3]; 1 h, gamma counting", "result": 2.3},
      {"measurement": "organs visible by optical imaging (biodistribution)", "setting": "[3]; 1 h post-injection, excised organs", "result": "the C6-tk tumor, the kidney, and the intestine were clearly visible"},
      {"measurement": "clearance route", "setting": "[3]; kidney vs intestine signal, 1 h", "result": "mainly through urinary excretion"},
      {"measurement": "cell uptake of [18F]FHBG", "setting": "[4]", "result": "rapid and high uptake"}
    ]},
    {"smiles": "[Cl][90Y]([Cl])[Cl]", "note": "[^90YCl3]", "values": [
      {"measurement": "tissue accumulation", "setting": "[5]", "result": "accumulated in the liver as well as in the bone (femur)"}
    ]},
    {"smiles": "[18F-].[Na+]", "note": "[Na^18F]", "values": [
      {"measurement": "distribution of imaging signal", "setting": "[6]", "result": "High and consistence imaging signals were observed in the bone structures"}
    ]},
    {"smiles": "[131I-].[Na+]", "note": "[Na^131I]", "values": [
      {"measurement": "thyroid uptake", "setting": "[7]", "result": "accumulated and maintained in the thyroid"}
    ]}
  ]
}
